What was measured:
[1] = tested on: MM1.S cells; test: Cell viability assay (CellTiter-Glo), MM1.S; format: cell-based, human; details: MM cells, in vitro cell culture
Procedure: (§1) Cell vi-ability and LD50 for inhibitors were measured in 96 well culture plates (2×10^4 cells/well) after 72 h of treatment using CellTiter-Glo® Luminescent Cell Viability Assay (Promega, Madison, WI, USA). (A) Cell survival assay with MM1.S.luc and BTZ-resistant MM1.S.luc cells. […] (C) Comparison of PDIA1 protein levels in MM1.S.luc and MM1.S.luc BTZ-resistant cells. Band intensity was calculated with Image Lab Version 5.2.1. (D) Cell survival assay with 5TGM1.luc and (E) BTZ-resistant 5TGM1.luc cells. (F) MM1.S cell line was exposed to CCF642-34, and BTZ for 72 h for synergistic drug combination test according to Chou and Talalay method. If the […] remained less than 1, the two drugs were determined as synergistic. […] The number of colony-forming units were plotted for each treatment.
Cell viability assay: Cell viability was measured in 96 well culture plates (2×10^4 cells/well) using CellTiter-Glo® Luminescent Cell Viability Assay (Promega, Madison, WI, USA) according to the manufacturer's protocol.

[2] = tested on: MM1.S-luc; test: Chou and Talalay drug combination test with BTZ; format: cell-based, human; details: combined with BTZ; lower dose range affecting 70% of myeloma cells or less
Procedure: as §1

[3] = tested on: RPMI-8226 cells vs CD34+ HSPCs derived from healthy bone marrow; test: In vitro colony-forming assay, myeloma cells versus normal bone marrow CD34+ cells; format: cell-based, human; details: colonies scored on day 14
Procedure: In vitro colony-forming assays: Mononuclear cells derived from bone marrow or purified CD34+ cells from a healthy donor, cord blood, or MM cell RPMI-8226 were grown in semi-solid methylcellulose media (MethoCult™, H4435; STEMCELL Technologies) in the presence of indicated compounds and concentrations. A total of 10,000/mL normal bone marrow CD34+ cells and 1000/mL RPMI-8226 cells were plat-ed, and colonies were scored on day 14.

[4] = Liver microsome assay; format: in vitro ADME; details: 0.25 mg/mL human liver microsomes
Procedure: FIGS. 8A & 8B provide graphs showing the stability of CCF642-34 and restriction of multiple myeloma in a syngeneic mouse model by PDIA1-inhibitor CCF642-34. (A) The stability of CCF642-34 was measured against oxidative metabolism by human liver microsomes. CCF642-34 (20 μM) was incubated with 0.25 mg/mL of human liver microsomes for 5 h. The residual compound at indicated time points was measured by HPLC (Agilent 1260 Infinity II) interfaced with reverse phase C18 column using 280 nm and 245 nm detection wavelength. The standard curve of known concentrations of CCF642-34 was obtained from the area under the peak at two wavelengths, and the remaining CCF642-34 was estimated. Data are representative of two independent experiments. […] The survival of each group was monitored, and Kaplan-Meier survival analysis was performed. […]
Liver microsome assay: 20 μM CCF642 or CCF642-34 were incubated with 1 mM NADPH and 0.25 mg/mL human liver microsomes (Sigma, Cat. No: M0567) at 37° C. […] Supernatant was obtained after centrifugation at 15,000 g for 5 min and the remaining compound in supernatant was analyzed by Agilent 1260 Infinity II HPLC with Ultra-violet (UV) detector using Gemini column, […] particle size 150×2 mm (Phenomenex). […] The relative amount of drug at each time point was determined by using the UV peak detection at wavelength 254 and 282 nm. […]

[5] = tested on: 5TGM1-luc myeloma cells; test: 5TGM1-luc/C57BL/KaLwRij syngeneic mouse model of myeloma; format: in vivo
Procedure: FIGS. 8A & 8B provide graphs showing the stability of CCF642-34 and restriction of multiple myeloma in a syngeneic mouse model by PDIA1-inhibitor CCF642-34. (A) The stability of CCF642-34 was measured against oxidative metabolism by human liver microsomes. CCF642-34 (20 μM) was incubated with 0.25 mg/mL of human liver microsomes for 5 h. The residual compound at indicated time points was measured by HPLC (Agilent 1260 Infinity II) interfaced with reverse phase C18 column using 280 nm and 245 nm detection wavelength. The standard curve of known concentrations of CCF642-34 was obtained from the area under the peak at two wavelengths, and the remaining CCF642-34 was estimated. Data are representative of two independent experiments. (B) 5TGM1-luc/C57BL/KaLwRij mouse models of myeloma (3 males, 3 females per treatment group) were engrafted with 2×10^6 5TGM1-luc cells via tail vein injection and treated 3 times a week for 8 weeks per oral gavage with 20 mg/kg of CCF642-34 dissolved in 10% 2-hydroxy-propyl-o-cyclodextrin. The survival of each group was monitored, and Kaplan-Meier survival analysis was performed. All control animals required euthanasia before 52 days (due to paraparesis, weight loss, poor general condition), while 3 out of 6 mice treated with CCF642-34 lived beyond 6 months with no sign of disease.
Mouse experiment: Animal care and procedures were conducted in accordance with institutional guidelines approved by the Institutional Animal Care and Use Committee (IACUC). […]
To evaluate whether CCF642-34 achieved anti-myeloma efficacy after oral administration in vivo we used the 5TGM1-luc/C57BL/KaLwRij syngeneic mouse model. […] Mouse weight was monitored along with systemic symptoms of distress or disease. […] The intensity of luminescence was not good enough for the detection of bioluminescence, which is a common issue in the imaging of B57 black 6 mice. Therefore, the inventors primarily monitored the survival, and the disease burden was determined in the bone marrow cells at the time of sacrifice of a moribund mice. […]

[6] = 20 mg/kg oral gavage 3 times a week for 8 weeks

NC(CC1CNc2ccccc21)C(=O)NCCCOc1ccc(N2C(=O)/C(=C/c3ccc([N+](=O)[O-])s3)SC2=S)cc1 (stereo not shown) [CCF642-34]
higher potency compared to CCF642 [1]: ~2 fold
combination index (CI) [2]: below 1
potency in restricting colony formation of RPMI-8226 compared to CD34+ HSPCs [3]: 20 fold
half-life at 20 µM [4]: > 300 min
mice living beyond 6 months with no sign of disease [5, 6]: 3 out of 6
mice living beyond 180 days with no sign of disease [5, 6]: 3 out of 6
adverse events as assessed by weight and animal behavior ([5]; oral treatment, 8 weeks): no obvious adverse events
